Legend:
[1] = Solubility of CBC in solvent systems, step-wise addition, visual inspection; type: physicochemical; conditions: cumulative CBC concentration after addition; solvent PG:VG 70:30
Protocol: (§1) Solvent systems were prepared and then CBG was added in a step-wise fashion and mixed until dissolved (according to visual inspection). The time taken for each addition to be solubilized was recorded.
A similar approach was taken as for example 1, but this time CBC was assessed.

[2] = type: physicochemical
Protocol: as §1

CBG concentration the solvent system could sustain [2] | time taken to solubilize approximately 5% CBG [2] | SMILES | Concentration [1]
 |  | CCCCCc1cc(O)c2c(c1)OC(C)(CCC=C(C)C)C=C2 (stereo not drawn) [CBC, cannabichromene] | 3.0319 %w/w
≤ 5 %w/w | > 2 h | CCCCCc1cc(O)c(C/C=C(\C)CCC=C(C)C)c(O)c1 [CBG, cannabigerol] | 
